Laboratory results taken from the NIST ThermoML archive (doi:10.1021/je700260f).
Numbers after ± are expanded uncertainties.

Conditions: 303.15 K, Liquid, Vibrating tube method

FC(C(F)(F)F)C(F)(F)F [1,1,1,2,3,3,3-heptafluoropropane]
Conditions | mass density [kg/m3]
15975 kPa | 1462 ± 1.6
16006 kPa | 1462.4 ± 1.6
16038 kPa | 1462.4 ± 1.6
16079 kPa | 1462.6 ± 1.6
16111 kPa | 1462.8 ± 1.6
16152 kPa | 1462.9 ± 1.6
16184 kPa | 1463 ± 1.6
16220 kPa | 1463.2 ± 1.6
16252 kPa | 1463.4 ± 1.6
16288 kPa | 1463.6 ± 1.6
16325 kPa | 1463.8 ± 1.6
16349 kPa | 1463.9 ± 1.6
16386 kPa | 1464 ± 1.6
16414 kPa | 1464.1 ± 1.6
16443 kPa | 1464.3 ± 1.6
16485 kPa | 1464.4 ± 1.6
16513 kPa | 1464.6 ± 1.6
16550 kPa | 1464.7 ± 1.6
16577 kPa | 1464.8 ± 1.6
16623 kPa | 1465.1 ± 1.6
16650 kPa | 1465.1 ± 1.6
16678 kPa | 1465.2 ± 1.6
16706 kPa | 1465.4 ± 1.6
16742 kPa | 1465.5 ± 1.6
16775 kPa | 1465.7 ± 1.6
16802 kPa | 1465.8 ± 1.6
16832 kPa | 1466 ± 1.6
16862 kPa | 1466 ± 1.6
16887 kPa | 1466.2 ± 1.6
16920 kPa | 1466.4 ± 1.6
16953 kPa | 1466.4 ± 1.6
16978 kPa | 1466.6 ± 1.6
17021 kPa | 1466.7 ± 1.6
17046 kPa | 1466.9 ± 1.6
17084 kPa | 1467 ± 1.6
17113 kPa | 1467.2 ± 1.6
17142 kPa | 1467.4 ± 1.6
17167 kPa | 1467.5 ± 1.6
17196 kPa | 1467.5 ± 1.6
17235 kPa | 1467.8 ± 1.6
17260 kPa | 1467.9 ± 1.6
17289 kPa | 1468 ± 1.6
17322 kPa | 1468.1 ± 1.6
17360 kPa | 1468.3 ± 1.6
17393 kPa | 1468.3 ± 1.6
17423 kPa | 1468.6 ± 1.6
17451 kPa | 1468.7 ± 1.6
17484 kPa | 1468.8 ± 1.6
17509 kPa | 1468.9 ± 1.6
17544 kPa | 1469.1 ± 1.6
17577 kPa | 1469.3 ± 1.6
17603 kPa | 1469.3 ± 1.6
17633 kPa | 1469.4 ± 1.6
17662 kPa | 1469.6 ± 1.6
17718 kPa | 1469.9 ± 1.6
17752 kPa | 1470 ± 1.6
17778 kPa | 1470 ± 1.6
17808 kPa | 1470.1 ± 1.6
17837 kPa | 1470.3 ± 1.6
17867 kPa | 1470.6 ± 1.6
17892 kPa | 1470.5 ± 1.6
17928 kPa | 1470.7 ± 1.6
17958 kPa | 1471 ± 1.6
17996 kPa | 1471 ± 1.6
18026 kPa | 1471.1 ± 1.6
18056 kPa | 1471.2 ± 1.6
18091 kPa | 1471.3 ± 1.6
18125 kPa | 1471.6 ± 1.6
18151 kPa | 1471.7 ± 1.6
18185 kPa | 1471.7 ± 1.6
18211 kPa | 1471.9 ± 1.6
18238 kPa | 1472.2 ± 1.6
18277 kPa | 1472.1 ± 1.6
18303 kPa | 1472.4 ± 1.6
18333 kPa | 1472.5 ± 1.6
18359 kPa | 1472.6 ± 1.6
18389 kPa | 1472.6 ± 1.6
18419 kPa | 1472.9 ± 1.6
18449 kPa | 1473 ± 1.6
18480 kPa | 1472.9 ± 1.6
18511 kPa | 1473.3 ± 1.6
18545 kPa | 1473.3 ± 1.6
18580 kPa | 1473.5 ± 1.6
18615 kPa | 1473.7 ± 1.6
18646 kPa | 1473.8 ± 1.6
18677 kPa | 1473.8 ± 1.6
18707 kPa | 1474.1 ± 1.6
18737 kPa | 1474.2 ± 1.6
18777 kPa | 1474.3 ± 1.6
18803 kPa | 1474.4 ± 1.6
18835 kPa | 1474.5 ± 1.6
18861 kPa | 1474.7 ± 1.6
18888 kPa | 1474.9 ± 1.6
18913 kPa | 1475 ± 1.6
18954 kPa | 1475.1 ± 1.6
18980 kPa | 1475.2 ± 1.6
19017 kPa | 1475.4 ± 1.6
19044 kPa | 1475.5 ± 1.6
19075 kPa | 1475.6 ± 1.6
19101 kPa | 1475.6 ± 1.6
19144 kPa | 1475.8 ± 1.6
19166 kPa | 1476 ± 1.6
19200 kPa | 1476.1 ± 1.6
19235 kPa | 1476.3 ± 1.6
19270 kPa | 1476.4 ± 1.6
19296 kPa | 1476.6 ± 1.6
19327 kPa | 1476.6 ± 1.6
19353 kPa | 1476.7 ± 1.6
19385 kPa | 1476.8 ± 1.6
19420 kPa | 1477 ± 1.6
19455 kPa | 1477.2 ± 1.6
19490 kPa | 1477.3 ± 1.6
19517 kPa | 1477.4 ± 1.6
19553 kPa | 1477.5 ± 1.6
19592 kPa | 1477.7 ± 1.6
19624 kPa | 1477.9 ± 1.6
19655 kPa | 1478.1 ± 1.6
19691 kPa | 1478.1 ± 1.6
19717 kPa | 1478.1 ± 1.6
19758 kPa | 1478.3 ± 1.6
19785 kPa | 1478.6 ± 1.6
19828 kPa | 1478.6 ± 1.6
19860 kPa | 1478.8 ± 1.6
19891 kPa | 1478.9 ± 1.6
19918 kPa | 1479 ± 1.6
19949 kPa | 1479.2 ± 1.6
19981 kPa | 1479.4 ± 1.6
20016 kPa | 1479.4 ± 1.6
20044 kPa | 1479.6 ± 1.6
20076 kPa | 1479.9 ± 1.6
20107 kPa | 1479.9 ± 1.6
20152 kPa | 1480 ± 1.6
20179 kPa | 1480.1 ± 1.6
20216 kPa | 1480.2 ± 1.6
20244 kPa | 1480.4 ± 1.6
20285 kPa | 1480.6 ± 1.6
20325 kPa | 1480.6 ± 1.6
20357 kPa | 1480.8 ± 1.6
20394 kPa | 1481 ± 1.6
20436 kPa | 1481.2 ± 1.6
20463 kPa | 1481.3 ± 1.6
20491 kPa | 1481.3 ± 1.6
20539 kPa | 1481.6 ± 1.6
20570 kPa | 1481.7 ± 1.6
20597 kPa | 1481.8 ± 1.6
20637 kPa | 1481.9 ± 1.6
20668 kPa | 1482 ± 1.6
20701 kPa | 1482.2 ± 1.6
20728 kPa | 1482.4 ± 1.6
20769 kPa | 1482.6 ± 1.6
20802 kPa | 1482.7 ± 1.6
20880 kPa | 1482.9 ± 1.6
21049 kPa | 1483.6 ± 1.6
21082 kPa | 1483.8 ± 1.6
21120 kPa | 1483.8 ± 1.6
21152 kPa | 1484.1 ± 1.6
21193 kPa | 1484.2 ± 1.6
21217 kPa | 1484.4 ± 1.6
21250 kPa | 1484.5 ± 1.6
21278 kPa | 1484.6 ± 1.6
21322 kPa | 1484.7 ± 1.6
21360 kPa | 1484.9 ± 1.6
21388 kPa | 1485 ± 1.6
21421 kPa | 1485.1 ± 1.6
21458 kPa | 1485.3 ± 1.6
21490 kPa | 1485.4 ± 1.6
21523 kPa | 1485.5 ± 1.6
21556 kPa | 1485.5 ± 1.6
21593 kPa | 1485.8 ± 1.6
21626 kPa | 1486 ± 1.6
22323 kPa | 1488.6 ± 1.6
22447 kPa | 1489.1 ± 1.6
22485 kPa | 1489.3 ± 1.6
22514 kPa | 1489.4 ± 1.6
22548 kPa | 1489.4 ± 1.6
22580 kPa | 1489.5 ± 1.6
22613 kPa | 1489.9 ± 1.6
22643 kPa | 1489.7 ± 1.6
22673 kPa | 1490 ± 1.6
22707 kPa | 1490.1 ± 1.6
22733 kPa | 1490.2 ± 1.6
22771 kPa | 1490.3 ± 1.6
22801 kPa | 1490.4 ± 1.6
22828 kPa | 1490.5 ± 1.6
22863 kPa | 1490.7 ± 1.6
22899 kPa | 1490.8 ± 1.6
22934 kPa | 1490.9 ± 1.6
22959 kPa | 1491.1 ± 1.6
22997 kPa | 1491.3 ± 1.6
23032 kPa | 1491.4 ± 1.6
23062 kPa | 1491.6 ± 1.6
23102 kPa | 1491.5 ± 1.6
23128 kPa | 1491.8 ± 1.6
23159 kPa | 1491.7 ± 1.6
23186 kPa | 1491.9 ± 1.6
23217 kPa | 1492 ± 1.6
23249 kPa | 1492.1 ± 1.6
23281 kPa | 1492.3 ± 1.6
23307 kPa | 1492.3 ± 1.6
23342 kPa | 1492.6 ± 1.6
23364 kPa | 1492.6 ± 1.6
23395 kPa | 1492.8 ± 1.6
23431 kPa | 1492.8 ± 1.6
23462 kPa | 1492.9 ± 1.6
23497 kPa | 1493 ± 1.6
